The text below walks through data of article doi:10.1101/139675v1, “Purification of the mammalian NgBR/hCIT cis-prenyltransferase complex: Identification of a conserved carboxyterminal RxG motif crucial for enzymatic activity” (biorxiv, 2017).

This test has as its target T1, NgBR/hCIT complex (hcisPT) (Homo sapiens, UniProt Q86SQ9+Q96E22).
T1 construct: gene DHDDS; full-length; N-terminal Strep-tag on hCIT, internal 6-His tag after Gly31 of NgBR; bicistronic vector in Expi293F
T1 sequence (Q86SQ9 1-333): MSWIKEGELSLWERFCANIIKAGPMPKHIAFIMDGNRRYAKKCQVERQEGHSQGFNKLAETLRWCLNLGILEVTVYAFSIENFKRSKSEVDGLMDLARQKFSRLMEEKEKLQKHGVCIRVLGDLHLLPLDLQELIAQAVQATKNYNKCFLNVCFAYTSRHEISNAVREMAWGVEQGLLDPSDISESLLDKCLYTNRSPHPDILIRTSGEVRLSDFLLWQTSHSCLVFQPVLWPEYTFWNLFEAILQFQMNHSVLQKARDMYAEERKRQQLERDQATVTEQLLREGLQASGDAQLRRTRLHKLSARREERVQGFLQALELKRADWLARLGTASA
T1 sequence (Q96E22 1-293): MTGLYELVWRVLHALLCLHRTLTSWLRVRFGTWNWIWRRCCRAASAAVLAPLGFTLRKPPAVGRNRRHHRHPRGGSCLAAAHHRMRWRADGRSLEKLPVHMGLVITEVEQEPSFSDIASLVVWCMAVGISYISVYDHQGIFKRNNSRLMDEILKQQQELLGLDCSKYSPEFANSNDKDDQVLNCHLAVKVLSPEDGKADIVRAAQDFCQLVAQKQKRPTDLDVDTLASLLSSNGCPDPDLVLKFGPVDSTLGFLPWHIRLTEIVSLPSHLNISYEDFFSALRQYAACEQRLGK
The test can be described thus: […]-IPP incorporation, Michaelis-Menten fit. In kind it is biochemical. Particulars: 50 mM Tris-HCl pH 8, 1 mM MgCl2, 1% phosphatidylinositol, 37 C.

Regarding `CC(C)=CCC/C(C)=C/CC/C(C)=C/COP(=O)(O)OP(=O)(O)O` [FPP], the Km entry (100 uM IPP, 0.1-50 uM FPP) was “steady state kinetic parameters were measured for complexes containing the WT subunits, hCIT/NgBR”. `C=C(C)CCOP(=O)(O)OP(=O)(O)O` [IPP]: the Km result (50 uM FPP, 0.1-400 uM IPP, labelled compound) is recorded as “steady state kinetic parameters were measured for complexes containing the WT subunits, hCIT/NgBR”.
